Reference: ChEMBL document CHEMBL1139185, “Methyl spongoate, a cytotoxic steroid from the Sanya soft coral Spongodes sp” (Bioorg Med Chem Lett, 2007)
Converted amounts (≈) assume the structure as drawn.

Tests used:
Type in all cases: functional, cell-based
Bel-7402 = test: Cytotoxicity against human BEL-7402 cells
A549 = test: Cytotoxicity against human A549 cells
HT-29 = test: Cytotoxicity against human HT29 cells
P388 = test: Cytotoxicity against mouse P388 cells

## COC(=O)[C@H](CCCC(C)C)[C@H]1CC[C@H]2[C@@H]3CC[C@H]4CC(=O)C=C[C@]4(C)[C@H]3CC[C@]12C [METHYL SPONGOATE]
Bel-7402
  IC50: 0.14 µg/mL (≈ 0.327 µM)
A549
  IC50: 5 µg/mL (≈ 11.7 µM)
HT-29
  IC50: 5 µg/mL (≈ 11.7 µM)
P388
  IC50: 3.8 µg/mL (≈ 8.86 µM)
